Reference: patent US20100256177A1, “Flavopereirine derivatives for cancer therapy” (priority 2004, published 2010)
Converted amounts (≈) assume the structure as drawn.

What was measured:
Assay type in all cases: cell-based
[1] = system: MCF7 (breast) human tumor cell line; test: three day MTT cytotoxicity assay, MCF7 breast; conditions: MCF7 breast cells, 72 hours
Method: (§1) A number of the Flavopereirine derivatives were tested for cytotoxicity against nine (9) human tumor cell lines. Briefly, a three day MTT cytotoxicity assay was performed, which is based on the principle of uptake of MTT (3-(4,5-dimethylthiazol-2-yl)-2,5-diphenyl tetrazolium bromide), a tetrazolium salt, by the metabolically active cells where it is metabolized by active mitochondria into a blue colored formazan product that is read spectrophotometrically. MIT was dissolved in phosphate buffered saline with a pH of 7.4 to obtain an MTT concentration of 5 mg/ml; the resulting mixture was filtered through a 0.22-micron filter to sterilize and remove a small amount of insoluble residue. For each type of tumor cell, 10000 to 15000 cells were seeded in a 96-well culture plate and incubated with the individual Flavopereirine derivatives in concentration ranging from 1-20 μg/ml in a CO2 incubator for a total of 72 hours. Control cells not treated with the Flavopereirine derivatives were similarly incubated. The assay was terminated by adding 100 μg (20 μl) of MTT to each well, then incubating for additional one hour, and finally adding 50 μl of 10% SDS-0.01N HCl to each well to lyse the cells and dissolve formazan. After incubating for one hour, the plate was read spectrophotometrically at 540 nm and the percentage of cytotoxicity calculated using the following formula:
(§2) Cytotoxicity percentage=100×[1-(X/R1)], where X=(absorbance of treated sample at 540 nm)−(absorbance of blank at 540 nm) R1=absorbance of control sample at 540 nm.
(§3) The IC50 Values of the cytotoxicity defined as the concentration at which 50% of the cells are killed in vitro was calculated for each cell line treated with each of the Flavopereirine derivatives.
(§4) The cell lines are ovary (PA-1), breast (MCF-7), prostate (DU145), pancreas (MiaPaCa.2), oral cavity (KB), lung (L132), colon (SW620), and larynx (HeP2).

[2] = system: Hep2 (larynx) human tumor cell line; test: three day MTT cytotoxicity assay, Hep2 larynx; conditions: 72 hours; for IC50 (μg/mL) of Flavoperereine derivatives in human tumor cell lines, Hep2 Larynx: Hep2 larynx cells
Method: as §1, §2, §3, §4

[3] = system: MiaPaca2 (pancreas) human tumor cell line; test: three day MTT cytotoxicity assay, MiaPaca2 pancreas; conditions: 72 hours; for IC50 (μg/mL) of Flavoperereine derivatives in human tumor cell lines, MiaPaca2 Pancreas: MiaPaca2 pancreas cells
Method: as §1, §2, §3, §4

[4] = system: PA1 (ovary) human tumor cell line; test: three day MTT cytotoxicity assay, PA1 ovarian; conditions: PA1 ovarian cells, 72 hours
Method: as §1, §2, §3, §4

[5] = system: KB (oral cavity) human tumor cell line; test: three day MTT cytotoxicity assay, KB oral; conditions: KB oral cells, 72 hours
Method: as §1, §2, §3, §4

[6] = system: SW620 (colon) human tumor cell line; test: three day MTT cytotoxicity assay, SW620 colon; conditions: 72 hours; for IC50 (μg/mL) of Flavoperereine derivatives in human tumor cell lines, SW620 Colon: SW620 colon cells
Method: as §1, §2, §3, §4

[7] = system: DU145 (prostate) human tumor cell line; test: three day MTT cytotoxicity assay, DU145 prostate; conditions: 72 hours; for IC50 (μg/mL) of Flavoperereine derivatives in human tumor cell lines, DU145 Prostate: DU145 prostate cells
Method: as §1, §2, §3, §4

[8] = system: L132 (lung) human tumor cell line; test: three day MTT cytotoxicity assay, L132 lung; conditions: L132 lung cells, 72 hours
Method: as §1, §2, §3, §4

[9] = system: ECV-304 (endothelial) cell line; test: three day MTT cytotoxicity assay, ECV-304 endothelial; conditions: ECV-304 endothelial cells, 72 hours
Method: as §1, §2, §3

Row | Structure (SMILES) | IC50 (μg/mL) of Flavoperereine derivatives in human tumor cell lines, MCF7 Breast [1] [µg/mL] | IC50 (μg/mL) of Flavoperereine derivatives in human tumor cell lines, Hep2 Larynx [2] [µg/mL] | IC50 (μg/mL) of Flavoperereine derivatives in human tumor cell lines, MiaPaca2 Pancreas [3] [µg/mL] | IC50 (μg/mL) of Flavoperereine derivatives in human tumor cell lines, PA1 Ovarian [4] [µg/mL] | IC50 (μg/mL) of Flavoperereine derivatives in human tumor cell lines, KB Oral [5] [µg/mL] | IC50 (μg/mL) of Flavoperereine derivatives in human tumor cell lines, SW620 Colon [6] [µg/mL] | IC50 (μg/mL) of Flavoperereine derivatives in human tumor cell lines, DU145 Prostate [7] [µg/mL] | IC50 (μg/mL) of Flavoperereine derivatives in human tumor cell lines, L132 Lung [8] [µg/mL] | IC50 ([1]; Homo sapiens, read-out: IC50 (μg/mL) of Flavoperereine derivatives in human tumor cell lines, MCF7 Breast) [µg/mL] | IC50 ([2]; Homo sapiens, HEp-2, Hep2 larynx cells, read-out: IC50 (μg/mL) of Flavoperereine derivatives in human tumor cell lines, Hep2 Larynx) [µg/mL] | IC50 ([3]; Homo sapiens, MIA PaCa-2, MiaPaca2 pancreas cells, read-out: IC50 (μg/mL) of Flavoperereine derivatives in human tumor cell lines, MiaPaca2 Pancreas) [µg/mL] | IC50 ([4]; Homo sapiens, read-out: IC50 (μg/mL) of Flavoperereine derivatives in human tumor cell lines, PA1 Ovarian) [µg/mL] | IC50 ([9]; Homo sapiens, read-out: IC50 (μg/mL) of Flavoperereine derivatives in human tumor cell lines, ECV-304 Endothelial) [µg/mL] | IC50 ([5]; Homo sapiens, read-out: IC50 (μg/mL) of Flavoperereine derivatives in human tumor cell lines, KB Oral) [µg/mL] | IC50 ([6]; Homo sapiens, SW-620, SW620 colon cells, read-out: IC50 (μg/mL) of Flavoperereine derivatives in human tumor cell lines, SW620 Colon) [µg/mL] | IC50 ([7]; Homo sapiens, DU-145, DU145 prostate cells, read-out: IC50 (μg/mL) of Flavoperereine derivatives in human tumor cell lines, DU145 Prostate) [µg/mL] | IC50 ([8]; Homo sapiens, read-out: IC50 (μg/mL) of Flavoperereine derivatives in human tumor cell lines, L132 Lung) [µg/mL] | IC50 (μg/mL) of Flavoperereine derivatives in human tumor cell lines, ECV-304 Endothelial [9] [µg/mL]
1 | Oc1ccc2[n+](c1)CCc1c-2[nH]c2ccccc12 [Compound 22, 3-hydroxy-6,7-dihydroindolo[2,3-a]quinolizinium] | >100 | >100 | >100 | >100 | >100 | >100 | >100 | >100 | – | – | – | – | – | – | – | – | – | –
2 | C1=CC2=C3N=c4ccccc4=C3CCN2C=C1OCc1ccccc1 [Compound 23, 3-benzyloxy-6,7-dihydroindolo[2,3-a]quinolizine] | – | – | – | – | – | – | – | – | 5 (≈ 15.3 µM) | 17 (≈ 52.1 µM) | 10 (≈ 30.6 µM) | 31 (≈ 95 µM) | 16 (≈ 49 µM) | 12 (≈ 36.8 µM) | 11 (≈ 33.7 µM) | 10 (≈ 30.6 µM) | 20 (≈ 61.3 µM) | –
3 | CCOc1ccc2[n+](c1)CCc1c-2[nH]c2ccccc12 [Compound 24, 3-ethoxy-6,7-dihydroindolo[2,3-a]quinolizinium] | – | 89 | – | 38 | 50 | 30 | – | 20 | – | – | – | – | – | – | – | – | – | 64
4 | Fc1ccc(COc2ccc3[n+](c2)CCc2c-3[nH]c3ccccc23)cc1.[O-][Cl+3]([O-])([O-])[O-] [Compound 25] | 34 | 44 | 30 | 36 | 8 | 44 | 41 | 9 | – | – | – | – | – | – | – | – | – | 24
5 | Brc1ccc(COc2ccc3[n+](c2)CCc2c-3[nH]c3ccccc23)cc1.[Br-] [Compound 26] | >100 | 24 | 9.5 | >100 | 6 | >100 | 7.5 | – | – | – | – | – | – | – | – | – | – | 12
6 | CCCCOc1ccc2[n+](c1)CCc1c-2[nH]c2ccccc12.[Br-] [Compound 27] | 6 | 5 | 7.5 | 4.7 | 7 | 4 | 9 | – | – | – | – | – | – | – | – | – | – | –
7 | c1ccc(COc2ccc3c4[nH]c5ccccc5c4cc[n+]3c2)cc1 [Compound 28, 3-benzyloxyindolo[2,3-a]quinolizinium] | 5 | 1.5 | 2 | 1.5 | 2 | <1 | 2 | 2 | – | – | – | – | – | – | – | – | – | 4
8 | CCOc1ccc2c3[nH]c4ccccc4c3cc[n+]2c1 [Compound 29, 3-ethoxyindolor-2,3-alquinolizinium] | – | 8.0 | – | 5 | 10 | 10 | – | 15 | – | – | – | – | – | – | – | – | – | 4
9 | BrCCCOc1ccc2c3[nH]c4ccccc4c3cc[n+]2c1.[O-][Cl+3]([O-])([O-])[O-] [Compound 30] | 6 | 1.5 | 4 | 2 | 10 | 6 | 7.5 | 10 | – | – | – | – | – | – | – | – | – | 6
10 | [Br-].c1ccc(COc2ccc3c4[nH]c5ccccc5c4cc[n+]3c2)cc1 [Compound 31] | 4 | 3 | <1 | 4 | <1 | 5 | 4.5 | 4.5 | – | – | – | – | – | – | – | – | – | 13.5
11 | Fc1ccc(COc2ccc3c4[nH]c5ccccc5c4cc[n+]3c2)cc1.[O-][Cl+3]([O-])([O-])[O-] [Compound 32] | <1 | 4 | <1 | 6 | <1 | 5 | 2 | <1 | – | – | – | – | – | – | – | – | – | 24
12 | CCCCOc1ccc2c3[nH]c4ccccc4c3cc[n+]2c1.[Br-] [Compound 33] | 3 | 2.4 | 2 | <1 | 1.6 | 1.4 | 5 | – | – | – | – | – | – | – | – | – | – | –
